Measurements reported in patent US10035790B2, “RORγ modulators” (BRISTOL-MYERS SQUIBB COMPANY, priority 2012, dated 2018).

biological target: T1, ligand binding domain of human RORγ (A262-S507) (Homo sapiens, UniProt P51449); experiment: General RORγ SPA binding assay (competition with [3H]25-hydroxycholesterol); conditions: RORγ SPA binding assay, inhibition of [3H]25-hydroxycholesterol binding; read-out: IC50
T1 construct: made in house; host or cells: E. coli
T1 sequence (P51449 262-507): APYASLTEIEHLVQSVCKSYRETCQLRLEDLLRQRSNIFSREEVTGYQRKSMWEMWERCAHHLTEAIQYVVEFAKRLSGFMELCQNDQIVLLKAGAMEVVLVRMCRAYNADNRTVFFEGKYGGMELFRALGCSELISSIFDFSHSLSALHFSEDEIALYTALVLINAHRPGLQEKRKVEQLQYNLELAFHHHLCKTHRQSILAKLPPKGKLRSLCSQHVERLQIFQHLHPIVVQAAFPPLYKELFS
Experimental: Example 2 General RORγ SPA Binding Assay
The binding of potential ligands to RORγ is measured by competition with [^3H]25-hydroxycholesterol using a scintillation proximity assay (SPA) binding assay. The ligand binding domain of human RORγ (A262-S507) with an N-terminal His tag is expressed in E. coli and purified using nickel affinity chromotography. 50 nM RORγ (A262-S507) is incubated with test compound at varying concentrations for 15 min at room temperature in PBS buffer containing 0.5% fatty acid free BSA. […] of [^3H]25-hydroxycholesterol is then added, and the reaction is incubated for 15 min. 4 mg/mL of Ysi Copper HIS-TAG SPA Beads (Perkin Elmer) are added, and the mixture is incubated for 30 min. The reaction is read on a MicroBeta Trilux scintillation plate reader (Perkin Elmer). IC50 values are determined from the percentage inhibition of [^3H]25-hydroxycholesterol binding.

First: Cc1ncc(C(=O)NCc2cccc(Cl)c2)c(C2CCN(C(=O)Cc3c(F)cccc3F)CC2)n1 [Compound A40, N-(3-chlorobenzyl)-4-(1-(2-(2,6-difluorophenyl)acetyl)piperidin-4-yl)-2-methylpyrimidine-5-carboxamide]
Second: Cc1cccc(CNC(=O)c2cnc(C)nc2C2CCN(C(=O)Cc3c(F)cccc3F)CC2)c1 [Compound A60, 4-(1-(2-(2,6-difluorophenyl)acetyl)piperidin-4-yl)-2-methyl-N-(3-methylbenzyl)pyrimidine-5-carboxamide]
The IC50 of the first is 6-fold lower: 5.8 nM for the first, 35 nM for the second. The first is the more potent here.

First: Cc1ncc(C(=O)NCc2cc(F)cc(Cl)c2)c(C2CCN(C(=O)Cc3c(F)cccc3F)CC2)n1 [Compound A41, N-(3-chloro-5-fluorobenzyl)-4-(1-(2-(2,6-difluorophenyl)acetyl)piperidin-4-yl)-2-methylpyrimidine-5-carboxamide]
Second: Cc1ncc(C(=O)NCc2cc(Cl)cc(Cl)c2)c(C2CCN(C(=O)Cc3c(F)cccc3F)CC2)n1 [Compound A51, N-(3,5-dichlorobenzyl)-4-(1-(2-(2,6-difluorophonyl)acetyl)piperidin-4-yl)-2-methylpyrimidine-5-carboxamide]
The IC50 of the first is 1.5-fold lower: 4.8 nM for the first, 7.2 nM for the second. The first is the more potent here.

Compared with `Cc1ncc(C(=O)NCc2cc(Cl)ccc2F)c(C2CCN(C(=O)Cc3c(F)cccc3F)CC2)n1` [Compound A42, N-(5-chloro-2-fluorobenzyl)-4-(1-(2-(2,6-difluorophenyl)acetyl)piperidin-4-yl)-2-methylpyrimidine-5-carboxamide], `Cc1ncc(C(=O)NCc2ccc(Cl)cc2C)c(C2CCN(C(=O)Cc3c(F)cccc3F)CC2)n1` [Compound A59, N-(4-chloro-2-methylbenzyl)-4-(1-(2-(2,6-difluorophenyl)acetyl)piperidin-4-yl)-2-methylpyrimidine-5-carboxamide] is 5-fold higher in IC50: 5.1 nM for the first, 25.5 nM for the second. The first is the more potent here.

First: Cc1cc(C)cc(CNC(=O)c2cnc(C3CC3)nc2C2CCN(C(=O)Cc3c(F)cccc3F)CC2)c1 [Compound A43, 2-cyclopropyl-4-(1-(2-(2,6-difluorophenyl)acetyl)piperidin-4-yl)-N-(3,5-dimethylbenzyl)pyrimidine-5-carboxamide]
Second: CCc1ncc(C(=O)NCc2cc(C)cc(C)c2)c(C2CCN(C(=O)Cc3c(F)cccc3F)CC2)n1 [Compound A64, 4-(1-(2-(2,6-difluorophenyl)acetyl)piperidin-4-yl)-N-(3,5-dimethylbenzyl)-2-ethylpyrimidine-5-carboxamide]
The IC50 of the first is 12-fold lower: 5.4 nM for the first, 64 nM for the second.

`Cc1ncc(C(=O)NCc2cccc(C(F)(F)F)n2)c(C2CCN(C(=O)Cc3c(F)cccc3F)CC2)n1` [Compound A44, 4-(1-(2-(2,6-difluorophenyl)acetyl)piperidin-4-yl)-2-methyl-N-((6-(trifluoromethyl)pyridin-2-yl)methyl)pyrimidine-5-carboxamide] and `Cc1ncc(C(=O)NCc2cccc(C(F)(F)F)c2)c(C2CCN(C(=O)Cc3c(F)cccc3F)CC2)n1` [Compound A46, 4-(1-(2-(2,6-difluorophenyl)acetyl)piperidin-4-yl)-2-methyl-N-(3-(trifluoromethyl)benzyl)pyrimidine-5-carboxamide] are within 1.5-fold of each other in IC50: 5.7 nM for the first, 6.1 nM for the second.

`O=C(NCc1cccc(Cl)c1)c1cnc(C2CC2)nc1C1CCN(C(=O)Cc2c(F)cccc2F)CC1` [Compound A45, N-(3-chlorobenzyl)-2-cyclopropyl-4-(1-(2-(2,6-difluorophenyl)acetyl)piperidin-4-yl)pyrimidine-5-carboxamide] and `CCc1ncc(C(=O)NCc2cccc(Cl)c2)c(C2CCN(C(=O)Cc3c(F)cccc3F)CC2)n1` [Compound A48, N-(3-chlorobenzyl)-4-(1-(2-(2,6-difluorophenyl)acetyl)piperidin-4-yl)-2-ethylpyrimidine-5-carboxamide] are within 1.5-fold of each other in IC50: 6 nM for the first, 6.7 nM for the second.

Going from `Cc1ncc(C(=O)NCc2ccnc(C(F)(F)F)c2)c(C2CCN(C(=O)Cc3c(F)cccc3F)CC2)n1` [Compound A47, 4-(1-(2-(2,6-difluorophenyl)acetyl)piperidin-4-yl)-2-methyl-N-((2-(triflnoromethyl)pyridin-4-yl)methyl)pyrimidine-5-carboxamide] to `Cc1ncc(C(=O)NCc2cc(C(F)(F)F)ccn2)c(C2CCN(C(=O)Cc3c(F)cccc3F)CC2)n1` [Compound A66, 4-(1-(2-(2,6-difluorophenyl)acetyl)piperidin-4-yl)-2-methyl-N-((4-(trifluoromethyl)pyridin-2-yl)methyl)pyrimidine-5-carboxamide], the IC50 rises from 6.3 nM to 72 nM (11-fold).

`Cc1ncc(C(=O)NCc2cc(Cl)nc(Cl)c2)c(C2CCN(C(=O)Cc3c(F)cccc3F)CC2)n1` [Compound A49, N-((2,6-dichloropyridin-4-yl)methyl)-4-(1-(2-(2,6-difluorophenyl)acetyl)piperidin-4-yl)-2-methylpyrimidine-5-carboxamide] and `COc1cc(CNC(=O)c2cnc(C)nc2C2CCN(C(=O)Cc3c(F)cccc3F)CC2)cc(Cl)n1` [Compound A52, N-((2-chloro-6-methoxypyridin-4-yl)methyl)-4-(1-(2-(2,6-difluorophenyl)acetyl)piperidin-4-yl)-2-methylpyrimidine-5-carboxamide] are within 1.5-fold of each other in IC50: 6.8 nM for the first, 7.5 nM for the second.

Going from `Cc1ncc(C(=O)NCc2cccc(C#N)c2)c(C2CCN(C(=O)Cc3c(F)cccc3F)CC2)n1` [Compound A50, N-(3-cyanobenzyl)-4-(1-(2-(2,6-difluorophenyl)acetyl)piperidin-4-yl)-2-methylpyrimidine-5-carboxamide] to `COc1cccc(CNC(=O)c2cnc(C)nc2C2CCN(C(=O)Cc3c(F)cccc3F)CC2)c1` [Compound A58, 4-(1-(2-(2,6-difluorophenyl)acetyl)piperidin-4-yl)-N-(3-methoxybenzyl)-2-methylpyrimidine-5-carboxamide], the IC50 rises from 7.1 nM to 24.3 nM (3.4-fold).

Compared with `Cc1ncc(C(=O)NCc2cccc(OC(F)(F)F)c2)c(C2CCN(C(=O)Cc3c(F)cccc3F)CC2)n1` [Compound A53, 4-(1-(2-(2,6-difluorophenyl)acetyl)piperidin-4-yl)-2-methyl-N-(3-(trifluoromethoxy)benzyl)pyrimidine-5-carboxamide], `Cc1ncc(C(=O)NCc2ccnc(Cl)c2)c(C2CCN(C(=O)Cc3c(F)cccc3F)CC2)n1` [Compound A56, N-((2-chloropyridin-4-yl)methyl)-4-(1-(2-(2,6-difluorophenyl)acetyl)piperidin-4-yl)-2-methylpyrimidine-5-carboxamide] is 2.4-fold higher in IC50: 8.1 nM for the first, 19.3 nM for the second.

Compared with `Cc1ncc(C(=O)NCc2cccc(Cl)c2F)c(C2CCN(C(=O)Cc3c(F)cccc3F)CC2)n1` [Compound A54, N-(3-chloro-2-fluorobenzyl)-4-(1-(2-(2,6-ditluorophenyl)acetyl)piperidin-4-yl)-2-methylpyrimidine-5-carboxamide], `Cc1ncc(C(=O)NCc2cccc(Cl)c2C)c(C2CCN(C(=O)Cc3c(F)cccc3F)CC2)n1` [Compound A63, N-(3-chloro-2-methylbenzyl)-4-(1-(2-(2,6-difluorophenyl)acetyl)piperidin-4-yl)-2-methylpyrimidine-5-carboxamide] is 4.5-fold higher in IC50: 13.9 nM for the first, 63 nM for the second.

Compared with `Cc1ncc(C(=O)NCc2ccnc(C#N)c2)c(C2CCN(C(=O)Cc3c(F)cccc3F)CC2)n1` [Compound A55, N-((2-cyanopyridin-4-yl)methyl)-4-(1-(2-(2,6-difluorophenyl)acetyl)piperidin-4-yl)-2-methylpyrimidine-5-carboxamide], `Cc1ncc(C(=O)NCc2ccc(Cl)cc2)c(C2CCN(C(=O)Cc3c(F)cccc3F)CC2)n1` [Compound A62, N-(4-chlorobenzyl)-4-(1-(2-(2,6-difluorophenyl)acetyl)piperidin-4-yl)-2-methylpyrimidine-5-carboxamide] is 2.3-fold higher in IC50: 19.2 nM for the first, 43.4 nM for the second. The first is the more potent here.

Going from `Cc1cc(C)cc(CNC(=O)c2cncnc2C2CCN(C(=O)Cc3c(F)cccc3F)CC2)c1` [Compound A57, 4-(1-(2-(2,6-difluorophenyl)acetyl)piperidin-4-yl)-N-(3,5-dimethylbenzyl)pyrimidine-5-carboxamide] to `O=C(NCc1ccc(Cl)c(Cl)c1)c1cncnc1C1CCN(C(=O)Cc2c(F)ccc(F)c2F)CC1` [Compound A68, N-(3,4-dichlorobenzyl)-4-(1-(2-(2,3,6-trifluorophenyl)acetyl)piperidin-4-yl)pyrimidine-5-carboxamide], the IC50 rises from 21.8 nM to 95 nM (4.4-fold). The first is the more potent here.

First: Cc1nc(C)c(C(=O)NCc2ccnc(C(F)(F)F)c2)c(C2CCN(C(=O)Cc3c(F)cccc3F)CC2)n1 [Compound A61, 4-(1-(2-(2,6-difluorophenyl)acetyl)piperidin-4-yl)-2,6-dimethyl-N-((2-(trifluoromethyl)pyridin-4-yl)methyl)pyrimidine-5-carboxamide]
Second: Cc1cc(C(F)(F)F)nc(CNC(=O)c2cnc(C)nc2C2CCN(C(=O)Cc3c(F)cccc3F)CC2)n1 [Compound A67, 4-(1-(2-(2,6-difluorophenyl)acetyl)piperidin-4-yl)-2-methyl-N-((4-methyl-6-(trifluoromethyl)pyrimidin-2-yl)methyl)pyrimidine-5-carboxamide]
The IC50 of the first is 2.2-fold lower: 38.2 nM for the first, 85 nM for the second.

`O=C(NCc1ccc(Cl)c(Cl)c1)c1cncnc1C1CCN(C(=O)Cc2c(Cl)cccc2Cl)CC1` [Compound A65, N-(3,4-dichlorobenzyl)-4-(1-(2-(2,6-dichlorophenyl)acetyl)piperidin-4-yl)pyrimidine-5-carboxamide] showed an IC50 of 69 nM.
